The record followed here is patent US8957074B2 (Novartis AG, priority 2010, dated 2015).

In general, IC50 refers to the concentration needed to halve the response being measured.

Experiment [1] addresses CDK4/cyclin D1 (Homo sapiens (Human), UniProt P11802). The experiment can be described thus: CDK4/cyclin D1 enzymatic activity assay (TR-FRET, phosphorylation of pRb at Ser780). The class given is biochemical. Put shortly: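 Phosphorylation at pRb Ser780, detected by TR-FRET, gave IC50s and kinetics. Enzyme: baculovirus/Sf21-expressed human CDK4/cyclin D1. ATP at 3 μM initiated the reaction; EDTA (pH 8.0) stopped it after 60 min at 22° C.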
(In TR-FRET formats the signal depends on donor and acceptor labels being close together.)

The subject of experiment [2] is phosphorylation of pRb at the Ser780 site in JeKo-1 mantle cell lymphoma cells. In words: CDK4 cellular assay: ELISA of pRb phosphorylation at Ser780 in JeKo-1 cells. The class given is cell-based. The following applies: Homo sapiens. (In general: In an ELISA, binding on a coated surface is turned into a signal by an enzyme label.)
For experiment [3], the target named is CDK1/cyclin B (Homo sapiens (Human), UniProt P06493). In words: CDK1/cyclin B enzymatic activity assay (IMAP-FP). The class given is biochemical. As to conditions: 100 nM Tamra Histone-H1 peptide, 20 μM ATP, 120 min at room temperature, read-out: Biochemical CDK1 enzyme IC50. From the text:
CDK1/Cyclin B Enzymatic Activity Assay
A 384-well microtiter IMAP-FP™ (Molecular Devices Trade Mark Technology) endpoint assay was used for CDK1/cyclin B kinase activity measurements. The same assay was used for IC50 determination of small molecule inhibitors.

The mark [4] stands for this setting: 0.3 nM CDK4/cyclin D1, 150 nM biotin-pRb (773-924), 3 μM ATP, 60 min at 22° C., read-out: Biochemical CDK4 enzyme IC50.
Setting [5] is: JeKo-1, JeKo-1 cells, p-pRb % inhibition adjusted with total pRb levels, read-out: Normalized cellular ppRb inhibition IC50.
Setting [6] is: JeKo-1, JeKo-1 cells, p-pRb Ser780 ELISA, non-normalized, read-out: Cellular ppRb inhibition IC50.
Setting [7] is: JeKo-1 cells, p-pRb % inhibition adjusted with total pRb levels, read-out: Normalized cellular ppRb inhibition IC50.
The mark [8] stands for this setting: JeKo-1 cells, p-pRb Ser780 ELISA, non-normalized, read-out: Cellular ppRb inhibition IC50.
[9] abbreviates: JeKo-1, read-out: Cellular ppRb inhibition IC50.
Setting [10] is: JeKo-1, read-out: Normalized cellular ppRb inhibition IC50.

Structures are written as SMILES. Where two headings read alike, the source gives them in different places. A value given as a limit tells only on which side of the number the result lay.

CDK4/cyclin D1, sequence (P11802 whole entry): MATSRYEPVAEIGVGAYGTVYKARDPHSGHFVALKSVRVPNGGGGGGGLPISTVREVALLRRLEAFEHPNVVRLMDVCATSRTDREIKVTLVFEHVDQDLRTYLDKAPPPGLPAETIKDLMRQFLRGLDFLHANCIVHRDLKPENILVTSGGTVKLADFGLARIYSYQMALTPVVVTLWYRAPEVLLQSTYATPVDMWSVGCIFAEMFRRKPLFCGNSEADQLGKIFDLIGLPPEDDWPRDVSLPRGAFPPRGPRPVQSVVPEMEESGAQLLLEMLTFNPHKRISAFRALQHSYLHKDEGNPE
CDK4/cyclin D1, sequence (P24385 whole entry partner): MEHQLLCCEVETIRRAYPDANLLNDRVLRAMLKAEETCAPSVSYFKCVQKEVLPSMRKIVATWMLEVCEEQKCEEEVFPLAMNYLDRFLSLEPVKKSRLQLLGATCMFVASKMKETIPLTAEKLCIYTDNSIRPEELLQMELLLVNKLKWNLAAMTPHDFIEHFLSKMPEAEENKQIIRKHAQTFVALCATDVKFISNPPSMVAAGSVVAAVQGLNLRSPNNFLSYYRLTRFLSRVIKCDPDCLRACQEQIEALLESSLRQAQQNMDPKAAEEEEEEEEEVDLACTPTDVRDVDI
CDK1/cyclin B, sequence (P06493 whole entry, species assumed): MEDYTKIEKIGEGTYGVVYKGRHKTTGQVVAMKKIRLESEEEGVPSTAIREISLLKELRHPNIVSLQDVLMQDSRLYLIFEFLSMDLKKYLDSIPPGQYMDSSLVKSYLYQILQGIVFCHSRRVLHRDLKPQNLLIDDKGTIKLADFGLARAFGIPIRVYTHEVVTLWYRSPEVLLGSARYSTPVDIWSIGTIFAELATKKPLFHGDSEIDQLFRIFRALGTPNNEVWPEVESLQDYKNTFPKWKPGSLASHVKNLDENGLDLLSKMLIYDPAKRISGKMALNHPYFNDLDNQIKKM
CDK1/cyclin B, sequence (P14635 whole entry partner, species assumed): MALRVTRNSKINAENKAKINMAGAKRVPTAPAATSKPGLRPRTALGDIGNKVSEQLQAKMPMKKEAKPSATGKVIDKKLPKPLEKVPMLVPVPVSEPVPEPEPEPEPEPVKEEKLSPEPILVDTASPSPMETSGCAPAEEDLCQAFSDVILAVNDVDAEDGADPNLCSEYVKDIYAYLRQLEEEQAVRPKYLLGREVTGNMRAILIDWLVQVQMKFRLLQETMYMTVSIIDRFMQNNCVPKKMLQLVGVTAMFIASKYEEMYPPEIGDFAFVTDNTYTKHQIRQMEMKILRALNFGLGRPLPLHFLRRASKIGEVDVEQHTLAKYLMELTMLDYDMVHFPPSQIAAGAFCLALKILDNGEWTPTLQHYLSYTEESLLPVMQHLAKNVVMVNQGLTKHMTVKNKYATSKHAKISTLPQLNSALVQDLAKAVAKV

On to `CN(C)C(=O)c1cc2cnc(Nc3ccc(N4CCN5CCCC5C4=O)cn3)nc2n1C1CCCC1` (stereo not shown) [Example 115], for which the IC50 in experiment [1] (setting [4]) was 20 to 51 nM; in experiment [2] (setting [5]), 369 to 407 nM; in experiment [2] (setting [6]), 135 to 306 nM; in experiment [3] (0.25 nM CDK1/cyclin B), > 15000 nM.

With `CN(C)C(=O)c1cc2cnc(Nc3ccc(N4C[C@@]5(CCCNC5)OC4=O)cn3)nc2n1C1CCCC1` [Example 109, 7-Cyclopentyl-2-[5-((S)-2-oxo-1-oxa-3,7-diaza-spiro[4.5]dec-3-yl)-pyridin-2-ylamino]-7H-pyrrolo[2,3-d]pyrimidine-6-carboxylic acid dimethylamide], the half-inhibitory concentration (IC50) in experiment [1] (setting [4]) was 12 nM; in experiment [2] (setting [7]), 75 nM; in experiment [2] (setting [8]), 48 nM; in experiment [3] ([…] CDK1/cyclin B) it was > 15000 nM.

Regarding `CNC(=O)c1cc2cnc(Nc3ccc(N4C[C@H]5CC[C@@H](CC4=O)N5C)cn3)nc2n1C1CCCC1` [Example 125, 7-cyclopentyl-2-[5-((1R,6S)-9-methyl-4-oxo-3,9-diaza-bicyclo[4.2.1]non-3-yl)-pyridin-2-ylamino]-7H-pyrrolo[2,3-c]pyrimidine-6-carboxylic acid methylamide], the 50% inhibitory concentration (IC50) in experiment [1] (setting [4]) is 15 nM; in experiment [2] (setting [7]), 161 nM; in experiment [2] (setting [8]), 83 nM; in experiment [3] ([…] CDK1/cyclin B), > 15000 nM.

As to `CN(C)C(=O)c1cc2cnc(Nc3ccc(C(=O)N4CC5CCC(C4)C5N(C)C)cn3)nc2n1C1CCCC1` (stereo not shown) [Example 34, 7-cyclopentyl-2-(5-(8-(dimethylamino)-3-azabicyclo[3.2.1]octane-3-carbonyl)pyridin-2-ylamino)-N,N-dimethyl-7H-pyrrolo[2,3-d]pyrimidine-6-carboxamide], the IC50 in experiment [1] (setting [4]) was 22 nM; in experiment [2] (setting [7]), 140 nM; in experiment [2] (setting [8]), 75 nM; in experiment [3] ([…] CDK1/cyclin B) it was > 15000 nM.

In the case of `CN(C)C(=O)c1cc2cnc(Nc3ccc(C(=O)N4CC5CCC(C4)N5)cn3)nc2n1-c1cccc(C(C)(C)C)c1` [Example 54, 7-(3-tert-Butyl-phenyl)-2-[5-(3,8-diaza-bicyclo[3.2.1]octane-3-carbonyl)-pyridin-2-ylamino]-7H-pyrrolo[2,3-d]pyrimidine-6-carboxylic acid dimethylamide], the IC50 in experiment [1] (setting [4]) was 3 nM; in experiment [2] (setting [5]), 8 to 47 nM; in experiment [2] (setting [6]), 6 to 33 nM; in experiment [3] ([…] CDK1/cyclin B), 1990 nM.

In the case of `CN(C)C(=O)c1cc2cnc(Nc3ccc(N4CCN5CCCC5C4)cn3)nc2n1C1CCCC1` (stereo not shown) [Example 116, 7-cyclopentyl-2-(5-(hexahydropyrrolo[1,2-a]pyrazin-2(1H)-yl)pyridin-2-ylamino)-N,N-dimethyl-7H-pyrrolo[2,3-d]pyrimidine-6-carboxamide], the IC50 in experiment [1] (setting [4]) was 110 nM; in experiment [2] (setting [9]), 604 nM; in experiment [2] (setting [10]) it was 605 nM; in experiment [3] ([…] CDK1/cyclin B), > 15000 nM.

With `[2H]C([2H])([2H])N1[C@@H]2CC[C@H]1CN(c1ccc(Nc3ncc4cc(C(=O)N(C)C)n(C5CCCC5)c4n3)nc1)C(=O)C2` [Example 143, 7-Cyclopentyl-2-[5-((1S,6R)-9-trideuteromethyl-4-oxo-3,9-diazabicyclo[4.2.1]non-3-yl)-pyridin-2-ylamino]-7H-pyrrolo[2,3-d]pyrimidine-6-carboxylic acid dimethylamide], the IC50 in experiment [1] (setting [4]) is 44 nM; in experiment [2] (setting [5]), 251 nM; in experiment [2] (setting [6]), 119 nM; in experiment [3] (0.25 nM CDK1/cyclin B), > 15000 nM.

Consider `CN(C)C(=O)c1cc2cnc(Nc3ccc(N4C[C@@H]5CNC[C@@H]5C4=O)cn3)nc2n1C1CCCCCC1` [Example 82, 7-cycloheptyl-N,N-dimethyl-2-(5-((3aS,6aR)-1-oxohexahydropyrrolo[3,4-c]pyrrol-2(1H)-yl)pyridin-2-ylamino)-7H-pyrrolo[2,3-d]pyrimidine-6-carboxamide], for which the half-maximal inhibitory concentration (IC50) stood at 4 nM in experiment [1] (setting [4]), 9 nM in experiment [2] (setting [7]), 5 nM in experiment [2] (setting [8]) and 2660 nM in experiment [3] ([…] CDK1/cyclin B).

With `CN(C)C(=O)c1cc2cnc(Nc3ccc(C(=O)N4CC5C[C@]5(N)C4)cn3)nc2n1C1CCCC1` (single isomer, unassigned) [Example 16], the IC50 in experiment [1] (setting [4]) was 15 nM; in experiment [2] (setting [5]) it was 233 nM; in experiment [2] (setting [6]), 92 nM; in experiment [3] (0.25 nM CDK1/cyclin B) it was > 15000 nM.

As to `CN(C)C(=O)c1cc2cnc(Nc3ccc(C(=O)N4[C@@H]5CC[C@H]4C[C@@H](O)C5)cn3)nc2n1C1CCCC1` [Example 44, 7-Cyclopentyl-2-[5-((1S,3R,5R)-3-hydroxy-8-aza-bicyclo[3.2.1]octane-8-carbonyl)-pyridin-2-ylamino]-7H-pyrrolo[2,3-d]pyrimidine-6-carboxylic acid dimethylamide], the 50% inhibitory concentration (IC50) in experiment [1] (setting [4]) was 177 to 351 nM; in experiment [2] (setting [9]), 720 to 1490 nM; in experiment [2] (setting [10]) it was 778 nM; in experiment [3] ([…] CDK1/cyclin B), > 15000 nM.

On to `CN(C)C(=O)c1cc2cnc(Nc3ccc(C(=O)N4C[C@H]5CN[C@H](C5)C4)cn3)nc2n1C1CCCC1` [Example 11, 7-Cyclopentyl-2-[5-((1R,5R)-3,6-diaza-bicyclo[3.2.1]octane-3-carbonyl)-pyridin-2-ylamino]-7H-pyrrolo[2,3-d]pyrimidine-6-carboxylic acid dimethylamide], for which the half-maximal inhibitory concentration (IC50) in experiment [1] (setting [4]) is 9 nM; in experiment [2] (setting [5]), 68 nM; in experiment [2] (setting [6]), 39 nM; in experiment [3] ([…] CDK1/cyclin B), > 15000 nM.

Regarding `CN(C)C(=O)c1cc2cnc(Nc3ccc(C(=O)N4CC5CCC4C5O)cn3)nc2n1C1CCCC1` (stereo not shown) [Example 26], the IC50 was 38 nM in experiment [1] (setting [4]), 388 nM in experiment [2] (setting [7]), 325 nM in experiment [2] (setting [8]) and > 15000 nM in experiment [3] ([…] CDK1/cyclin B).

Consider `CN(C)C(=O)c1cc2cnc(Nc3ccc(C(=O)N4C5CCC4CNC5)cn3)nc2n1C1CCCC1` [Example 22, 7-Cyclopentyl-2-[5-(3,8-diaza-bicyclo[3.2.1]octane-8-carbonyl)-pyridin-2-ylamino]-7H-pyrrolo[2,3-d]pyrimidine-6-carboxylic acid dimethylamide], for which the IC50 in experiment [1] is 62 to 83 nM; in experiment [2] (setting [5]), 86 to 817 nM; in experiment [2] (setting [6]) it was 86 to 513 nM; in experiment [3] ([…] CDK1/cyclin B) it was > 15000 nM.

`CN(C)C(=O)c1cc2cnc(Nc3ccc(N4CC5CCC(N5)C4=O)cn3)nc2n1C1CCCCCC1` (stereo not shown) [Example 80, 7-Cycloheptyl-2-[5-(2-oxo-3,8-diaza-bicyclo[3.2.1]oct-3-yl)-pyridin-2-ylamino]-7H-pyrrolo[2,3-d]pyrimidine-6-carboxylic acid dimethylamide]: the IC50 is 12 to 14 nM in experiment [1], 74 to 474 nM in experiment [2] (setting [5]), 51 to 320 nM in experiment [2] (setting [6]) and 14000 nM in experiment [3] (0.25 nM CDK1/cyclin B).

As to `CN(C)C(=O)c1cc2cnc(Nc3ccc(N4C[C@H]5CC[C@@H](CC4=O)N5)cn3)nc2n1-c1ccccc1` [Example 130, 2-[5-((1R,6S)-4-oxo-3,9-diaza-bicyclo[4.2.1]non-3-yl)-pyridin-2-ylamino]-7-phenyl-7H-pyrrolo[2,3-d]pyrimidine-6-carboxylic acid dimethylamide], the IC50 in experiment [1] (setting [4]) is 9 nM; in experiment [2] (setting [5]), 22 to 45 nM; in experiment [2] (setting [6]), 19 to 26 nM; in experiment [3] ([…] CDK1/cyclin B), > 15000 nM.

As to `CN(C)C(=O)c1cc2cnc(Nc3ccc(N4CC5CNCC5C4=O)cn3)nc2n1C1CCCC1` (racemic) [Example 84, 7-cyclopentyl-N,N-dimethyl-2-(5-cis-1-oxohexahydropyrrolo[3,4-c]pyrrol-2(1H)-yl)pyridin-2-ylamino)-7H-pyrrolo[2,3-d]pyrimidine-6-carboxamide], the IC50 in experiment [1] (setting [4]) was < 5 nM; in experiment [2] (setting [5]) it was 10 to 28 nM; in experiment [2] (setting [6]) it was 7 to 17 nM; in experiment [3] (0.25 nM CDK1/cyclin B), 18000 nM.

With `CN(C)C(=O)c1cc2cnc(Nc3ccc(C(=O)N4CC5CC(C4)N(C)C5)cn3)nc2n1C1CCCC1` (stereo not shown) [Example 13, 7-Cyclopentyl-2-[5-(6-methyl-3,6-diaza-bicyclo[3.2.1]octane-3-carbonyl)-pyridin-2-ylamino]-7H-pyrrolo[2,3-d]pyrimidine-6-carboxylic acid dimethylamide], the 50% inhibitory concentration (IC50) in experiment [1] (setting [4]) was 6 nM; in experiment [2] (setting [7]), 145 nM; in experiment [2] (setting [8]), 65 nM; in experiment [3] ([…] CDK1/cyclin B), 8440 nM.

With `CN(C)C(=O)c1cc2cnc(Nc3ccc(N4CC5CCC(CC4=O)N5)cn3)nc2n1-c1ccccc1` (stereo not shown) [Example 128, 2-[5-(4-oxo-3,9-diaza-bicyclo[4.2.1]non-3-yl)-pyridin-2-ylamino]-7-phenyl-7H-pyrrolo[2,3-d]pyrimidine-6-carboxylic acid dimethylamide], the IC50 in experiment [1] (setting [4]) is 9 nM; in experiment [2] (setting [5]), 140 nM; in experiment [2] (setting [6]) it was 81 nM; in experiment [3] ([…] CDK1/cyclin B), > 15000 nM.

As for `CN(C)C(=O)c1cc2cnc(Nc3ccc(N4CC5CNCC5C4=O)cn3)nc2n1C1CCCCCC1` (stereo not shown) [Example 81, 7-Cycloheptyl-2-[5-(1-oxo-hexahydro-pyrrolo[3,4-c]pyrrol-2-yl)-pyridin-2-ylamino]-7H-pyrrolo[2,3-d]pyrimidine-6-carboxylic acid dimethylamide], the IC50 is < 5 nM in experiment [1], 3 nM in experiment [2] (setting [9]), 4 nM in experiment [2] (setting [10]) and 3810 nM in experiment [3] (0.25 nM CDK1/cyclin B).
